# “And” between values parts separate entries of the source, which are not always exact repeats. Identical values can stand only once.
# Assays:
# thyroxine antibody [1] = test: Reference displacement curve, thyroxine vs thyroxine-S-peptide, fluorogenic substrate (Example XVII); format: binding; settings: for Rate: antibody
# Procedure: This Example illustrates the generation of a reference displacement curve using thyroxine-S peptide as the labeled analyte and 5'-0-acetyl uridine-3'-(4 methylumbelliferone-7-yl phosphate) as a fluorogenic substrate. The following reagents were prepared:
# a. Thyroxine-S-Peptide labeled analyte: Material prepared as described in Examples I-IV, was diluted by a factor of 1:2000 in 0.1M sodium acetate buffer of pH 5.0.
# b. Antibody: Antiserum was diluted by a factor of 1:2000 using 0.1M sodium acetate buffer of pH 5.0;
# c. S-Protein: Purified material was brought to 2×10^-5 M using 0.1M sodium acetate buffer of pH 5.0;
# d. Substrate: Seventeen milligrams of 5'-0-acetyl-2'-0-(tetrahydropyran-2-yl) uridine 3'-(4 methylumbelliferone-7-yl ammonium phosphate was stirred in 0.01HCl for 45 minutes and then extracted with ether. Fifty ml of 0.01M sodium acetate buffer, of pH 5, was then added to give the substrate solution;
# e. Thyroxine antibody standards: Thyroxine solutions were freshly prepared to provide thyroxine concentrations of 0 ng/ml, 30 ng/ml, 60 ng/ml, 120 ng/ml, and 240 ng/ml in an aqueous medium containing human serum.
# Seventy-five microliters of the standard thyroxine solution was pretreated with 20 ul of 0.5N sodium hydroxide […] at room temperature. One hundred microliters of the antibody and 300 ul of thyroxine-S peptide labeled analyte were then added, and the mixture was incubated for 30 minutes at room temperature. A mixture consisting of 1.8 ml of substrate and 100 ul S-protein was then added. After incubating for 5 minutes, the rate of increase of fluorescence was monitored over a 10 minute period. An Aminco Filter Fluorometer (Model J4-7440) equipped with an automatic 20 sample changer (Model 047-67059) was utilized with excitation at 325 nm and emission at 440 nm. The data points were taken for each sample at times 0, 5, and 10 minutes by an automatic data acquisition system. Table 7 summarizes the results:
# In order to obtain a displacement curve, the data for duplicate points are averaged; and the % bound fraction (% B/Bo) is calculated from the equation: [formula] where Rate Bn is the rate corresponding to a non-zero standard and Rate Bo is that corresponding to the zero standard solution.
# thyroxine antibody [2] = test: Reference displacement curve, thyroxine vs thyroxine-S-peptide, colorimetric, CentrifiChem 500 (Example XVIII); format: binding; settings: for Rate: antibody
# Procedure: This Example illustrates the generation of a reference displacement curve for determination of unknown concentrations of the analyte thyroxine where a colorimetric substrate is utilized along with a centrifugal fast analyzer.
# (§1) The following reagents were utilized:
# a. Thyroxine S-peptide labeled analyte: Material prepared in the manner described in Examples I-IV was diluted by a factor of 1:400 with 0.1M sodium acetate buffer of pH 5.0;
# b. Antibody: Antiserum was diluted by a factor of 1:300 with 0.1M sodium acetate buffer of pH 5.0;
# c. Substrate: Uridine 3'-α-naphthyl phosphate;
# d. S-protein: Sigma purified commercial material was brought to 2.5×10^-6 M in 0.1M sodium acetate buffer;
# e. Dye: The 1,5-naphthalene disulfonic acid stabilized salt of diazo-psulfanilic acid (25 mg.) was dissolved in 1 ml of 0.1N HCl;
# f. Standards: Thyroxine standards at concentrations of 0, 40, 80, 120, and 200 ng/ml were made up in a human serum containing solution.
# The following settings were utilized on the CentrifiChem° 500 centrifugal fast analyzer: rotor temp, 30°; filter, 520 nm; To, 10 sec; t, 2 min; ABS 1.0 u; Blank, hold; test mode, Term; Print out, ABS; conc. factor, 0; test code 0.
# The standard (20 ul), antibody and polypeptide labeled analyte were pipetted into the sample wells of channels 3 to 14 of the transfer disc. A mixture of 5 ul of the dye, 300 ul of substrate, and 20 ul of S-protein, was pipetted into the corresponding reagent wells along with 10 ul of acetate buffer. The loaded transfer disc was placed on the rotor, and the instrument was spun. […]
# thyroxine antibody [3] = test: Reference displacement curve, thyroxine, interconverted pipetting of labeled analyte and S-protein (Example XIX); format: binding; settings: for 10^3 Rate: antibody
# From the text: This Example illustrates the interconversion of the thyroxine labeled analyte and S-protein where the S-protein is pipetted into the sample well and the labeled analyte is pipetted into the reagent well, in contrast to the preceding example where the reverse arrangement was used. Additionally, this Example illustrates the formulation of two reagent solutions for direct pipetting into the sample and reagent wells of the transfer disc using an automatic pipetter (Centrifichem® model P-500 pipetter). Thirdly, this Example illustrates the enhancement of dynamic range in relation to that obtained in Example XVIII by increasing the concentrations of the antibody and S-protein.
# as §1
# a. Thyroxine-S-peptide labeled analyte: Material prepared in the manner described in Examples I-IV was diluted by a factor of 1:50 with 0.1M sodium acetate buffer of pH 5.0;
# b. Antibody: Antiserum was diluted by a factor of 1:30 with 0.1M sodium acetate buffer of pH 5.0;
# c. Substrate: Uridine 3'-(α-naphthyl phosphate);
# d. S-protein: Sigma purified commercial material was brought to […] in 0.1M sodium acetate buffer;
# e. Dye: As in Example XVIII.
# f. Standards: As in Example XVIII.
# A mixture consisting of 500 ul of the substrate, 100 ul of the dye, and 250 ul of the conjugate was prepared. (Reagent A)
# A second solution (Reagent B) was prepared by combining 300 ul of the antibody, reagent, 300 ul of the S-protein and 150 ul of 0.1N. sodium acetate buffer.
# The following protocol was utilized for the assay: The standard (20 ul) and 65 ul of de-ionized H2 O were delivered to the sample well of the transfer disc by the sample probe of the P-500 pipetter. The reagent B (50 ul) was delivered to the sample well with the second reagent probe of the pipetter. Reagent A (250 ul) was delivered to the reagent well of the transfer disc with the first reagent probe of the pipetter. All three pipetting operations were done simultaneously in one cycle. The transfer disc was then placed on the CentrifiChem® 400 for analysis. The following settings were utilized for the CentrifiChem®: temperature, 30°; filter, 520 nm; T0, 10 seconds; T, 2 minutes; Abs, 3.0 u; Blank, hold; test mode, Term; print out, Abs; concentration factor, 0; test code, 0.
# thyroxine antibody [4] = test: Effect of pH on immunoreactivity in the assay of thyroxine; format: binding; settings: pH from 5 to about 7
# From the text: The effect of pH on the assay should likewise be considered. […] While the naphthyl phosphate substrate described herein may be suitably used at a pH of 5, the preferred umbelliferone-type substrate needs a pH in the range of about 6 to about 8 for useful operation in the […] mode. Sensitivities in pH can perhaps be overcome by changing the charge characteristics of the labeled analyte, as by incorporating more basic groups on the analyte molecule. Also, the use of a more avid antisera for thyroxine should be helpful. It may also be helpful to modify the linking chemistry (e.g.--the site, type of linking groups).
# RNase 1-118 = settings: combined with RNase 1-118; cited from earlier work
compound,measurement,setting,value
N[C@@H](Cc1cc(I)c(Oc2cc(I)c(O)c(I)c2)c(I)c1)C(=O)O [thyroxine],Rate,thyroxine antibody [1]; thyroxine standard 30 ng/ml,13.00 mv/min and 13.57 mv/min
same,Rate,thyroxine antibody [1]; thyroxine standard 60 ng/ml,13.30 mv/min and 13.40 mv/min
same,Rate,thyroxine antibody [1]; thyroxine standard 120 ng/ml,13.68 mv/min
same,Rate,thyroxine antibody [1]; thyroxine standard 240 ng/ml,14.15 mv/min and 14.17 mv/min
same,% B/B0 (% bound fraction),thyroxine antibody [1]; standard 30 ng/ml,67%
same,Rate (average of duplicates),thyroxine antibody [1]; standard 30 ng/ml,13.28 mv/min
same,% B/B0 (% bound fraction),thyroxine antibody [1]; standard 60 ng/ml,64%
same,Rate (average of duplicates),thyroxine antibody [1]; standard 60 ng/ml,13.35 mv/min
same,% B/B0 (% bound fraction),thyroxine antibody [1]; standard 120 ng/ml,51%
same,Rate (average of duplicates),thyroxine antibody [1]; standard 120 ng/ml,13.68 mv/min
same,% B/B0 (% bound fraction),thyroxine antibody [1]; standard 240 ng/ml,32%
same,Rate (average of duplicates),thyroxine antibody [1]; standard 240 ng/ml,14.16 mv/min
same,rate response between the 0 standard and 200 ng/ml standard,thyroxine antibody [2]; 0 to 200 ng/ml,3.5 m.a.u./min.
same,Rate,thyroxine antibody [2]; standard 40 ng/ml,0.0208 a.u./min and 0.0222 a.u./min
same,Rate,thyroxine antibody [2]; standard 80 ng/ml,0.0217 a.u./min and 0.0218 a.u./min
same,Rate,thyroxine antibody [2]; standard 120 ng/ml,0.0224 a.u./min
same,Rate,thyroxine antibody [2]; standard 200 ng/ml,0.0230 a.u./min
same,spread in rate covering the range of standard concentrations,thyroxine antibody [3]; 0-200 ng/ml,12 milliabsorbance units/min.
same,spread in rate relative to Example XVIII,thyroxine antibody [3]; 0-200 ng/ml,about 4 times
same,10^3 Rate,thyroxine antibody [3]; standard 40 ng/ml,57.8 a.u./min. and 58.3 a.u./min.
same,10^3 Rate,thyroxine antibody [3]; standard 80 ng/ml,60.4 a.u./min. and 59.5 a.u./min.
same,10^3 Rate,thyroxine antibody [3]; standard 120 ng/ml,62.0 a.u./min. and 64.8 a.u./min.
same,10^3 Rate,thyroxine antibody [3]; standard 200 ng/ml,65.3 a.u./min.
same,immunoreactivity as the pH is increased,thyroxine antibody [4],immunoreactivity is decreased
"tetradecapeptide 111 to 124: synthesized tetradecapeptide corresponding to residues 111 to 124 of the original RNase (EGNPYVPVHFDASV; UniProt P61823 137-150, looked up, fragment)",recovery of catalytic activity of RNase,RNase 1-118,essentially the full catalytic activity of RNase was recovered
